Data reported in US12173018B2, “Penicillin-binding protein inhibitors” (priority 2018, dated 2024).
≈ marks a conversion by molar mass, not a printed value.

What was measured:
Assay type in all cases: cell-based
P. aeruginosa PAO1 = test: Broth microdilution MIC, P. aeruginosa PAO1; conditions: Pseudomonas aeruginosa; P. aeruginosa PAO1, broth microdilution; read-out: MIC P. aeruginosa PAO1
How it was run: (§1)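 Broth microdilution MICs followed CLSI methods in cation-supplemented Mueller-Hinton broth, with 2-fold serial compound dilutions. Log-phase cultures grown 3–5 h were added to a starting inoculum of 5×10^5 CFU/mL and incubated 16–20 h at 37 °C. The MIC was read visually as the lowest concentration with no growth.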

K. pneumoniae SI-117 = test: microbe, parasite or virus in culture; conditions: Klebsiella pneumoniae, SI117, read-out: MIC K. pneumoniae SI-117
How it was run: as §1

E. coli 901C = test: microbe, parasite or virus in culture; conditions: Escherichia coli; hyper-permeable E. coli 901C, broth microdilution; read-out: MIC E. coli 901C
How it was run: as §1

P. aeruginosa ATCC 35151 = test: microbe, parasite or virus in culture; conditions: Pseudomonas aeruginosa, ATCC35151; hyper-permeable P. aeruginosa ATCC 35151; read-out: MIC P. aeruginosa ATCC 35151
How it was run: as §1

E. coli AG100A = test: microbe, parasite or virus in culture; conditions: Escherichia coli, read-out: MIC E. coli AG100A
How it was run: as §1

[1] = test system: P. aeruginosa (ΔmexAB-oprM); test: microbe, parasite or virus in culture; conditions: Pseudomonas aeruginosa, read-out: MIC P. aeruginosa ΔmexAB-OprM
How it was run: as §1

E. coli D22 = test: microbe, parasite or virus in culture; conditions: Escherichia coli; hyper-permeable E. coli D22, broth microdilution; read-out: MIC E. coli D22
How it was run: as §1

K. pneumoniae UMM = test: microbe, parasite or virus in culture; conditions: Klebsiella pneumoniae; K. pneumoniae UMM producing SHV-5 and KPC-2; read-out: MIC K. pneumoniae UMM
How it was run: as §1

E. coli ATCC 25922 = test: Broth microdilution MIC, E. coli ATCC 25922; conditions: Escherichia coli, ATCC25922; E. coli ATCC 25922, broth microdilution; read-out: MIC E. coli 25922
How it was run: as §1

A. baumannii ATCC 19606 = test: Broth microdilution MIC, A. baumannii ATCC 19606; conditions: Acinetobacter baumannii, ATCC19606; A. baumannii ATCC 19606, broth microdilution; read-out: MIC A. baumannii ATCC 19606
How it was run: as §1

N. gonorrhoeae FA1090 = test: Liquid broth MIC, N. gonorrhoeae FA1090; conditions: Neisseria gonorrhoeae; N. gonorrhoeae FA1090, liquid broth; read-out: Minimum Inhibitory Concentration, N. gonorrhoeae FA1090
How it was run: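 Broth microdilution in wild-type strains: colonies from GC agar with 1% Kellogg's supplement suspended in GC broth, inoculated at 5×10^5 CFU/mL into 2-fold compound dilutions. Plates incubated 40-42 hours at 36° C., 5% CO2; MIC read visually as lowest concentration with no growth.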

SMILES: CCN1CCN(C(=O)NC(C(=O)N[C@H]2Cc3ccc(Cl)c(C(=O)O)c3OB2O)c2ccc(O)c(O)c2Cl)C(=O)C1=O (stereo partly drawn) [Example 217, (3R)-7-chloro-3-(2-(2-chloro-3,4-dihydroxyphenyl)-2-(4-ethyl-2,3-dioxopiperazine-1-carboxamido)acetamido)-2-hydroxy-3,4-dihydro-2H-benzo[e][1,2]oxaborinine-8-carboxylic acid]
- MIC (P. aeruginosa PAO1): 2 to 4 µg/mL
- MIC (K. pneumoniae SI-117): 2 to 4 µg/mL
- MIC (E. coli 901C): 2 to 4 µg/mL
- MIC (P. aeruginosa ATCC 35151): < 0.25 µg/mL
- MIC (E. coli AG100A): 2 to 4 µg/mL
- MIC [1]: < 0.25 µg/mL
- MIC (E. coli D22): 2 to 4 µg/mL
- MIC (K. pneumoniae UMM): 2 to 4 µg/mL
- MIC (E. coli ATCC 25922): 8 to 16 µg/mL
- MIC (A. baumannii ATCC 19606): 0.5 to 1 µg/mL
- MIC (N. gonorrhoeae FA1090): 1 to 2 µg/mL (≈ 1.64 to 3.28 µM)

SMILES: CC[C@H]1CN(CC)C(=O)C(=O)N1C(=O)NC(C(=O)N[C@H]1Cc2cccc(C(=O)O)c2OB1O)c1ncc(O)cc1F (stereo partly drawn) [Example 218, (3R)-3-(2-((S)-4,6-diethyl-2,3-dioxopiperazine-1-carboxamido)-2-(3-fluoro-5-hydroxypyridin-2-yl)acetamido)-2-hydroxy-3,4-dihydro-2H-benzo[e][1,2]oxaborinine-8-carboxylic acid]
- MIC (P. aeruginosa PAO1): > 128 µg/mL
- MIC (K. pneumoniae SI-117): > 128 µg/mL
- MIC (E. coli 901C): < 0.25 µg/mL
- MIC (P. aeruginosa ATCC 35151): 2 to 4 µg/mL
- MIC (E. coli AG100A): 2 to 4 µg/mL
- MIC [1]: 32 to 64 µg/mL
- MIC (E. coli D22): 2 to 4 µg/mL
- MIC (K. pneumoniae UMM): 32 to 64 µg/mL
- MIC (E. coli ATCC 25922): 32 to 64 µg/mL
- MIC (A. baumannii ATCC 19606): > 128 µg/mL
- MIC (N. gonorrhoeae FA1090): 0.25 to 0.5 µg/mL (≈ 0.438 to 0.875 µM)

SMILES: C[C@H]1CN(CCO)C(=O)C(=O)N1C(=O)NC(C(=O)N[C@H]1Cc2cccc(C(=O)O)c2OB1O)c1ccc(O)c(O)c1Cl (stereo partly drawn) [Example 224, (3R)-3-(2-(2-chloro-3,4-dihydroxyphenyl)-2-((S)-4-(2-hydroxyethyl)-6-methyl-2,3-dioxopiperazine-1-carboxamido)acetamido)-2-hydroxy-3,4-dihydro-2H-benzo[e][1,2]oxaborinine-8-carboxylic acid]
- MIC (P. aeruginosa PAO1): 8 to 16 µg/mL
- MIC (K. pneumoniae SI-117): 2 to 4 µg/mL
- MIC (E. coli 901C): 0.5 to 1 µg/mL
- MIC (P. aeruginosa ATCC 35151): < 0.25 µg/mL
- MIC (E. coli AG100A): 0.5 to 1 µg/mL
- MIC [1]: 0.5 to 1 µg/mL
- MIC (E. coli D22): 2 to 4 µg/mL
- MIC (K. pneumoniae UMM): 2 to 4 µg/mL
- MIC (E. coli ATCC 25922): 2 to 4 µg/mL
- MIC (A. baumannii ATCC 19606): < 0.25 µg/mL
- MIC (N. gonorrhoeae FA1090): 1 to 2 µg/mL (≈ 1.65 to 3.31 µM)

SMILES: NCCN1CCN(C(=O)N[C@@H](C(=O)N[C@H]2Cc3cccc(C(=O)O)c3OB2O)c2ncc(O)cc2F)C(=O)C1=O [Example 225, (R)-3-((R)-2-(4-(2-aminoethyl)-2,3-dioxopiperazine-1-carboxamido)-2-(3-fluoro-5-hydroxypyridin-2-yl)acetamido)-2-hydroxy-3,4-dihydro-2H-benzo[e][1,2]oxaborinine-8-carboxylic acid]
- MIC (P. aeruginosa PAO1): > 128 µg/mL
- MIC (K. pneumoniae SI-117): 8 to 16 µg/mL
- MIC (E. coli 901C): 0.5 to 1 µg/mL
- MIC (P. aeruginosa ATCC 35151): 0.5 to 1 µg/mL
- MIC (E. coli AG100A): 0.5 to 1 µg/mL
- MIC [1]: 2 to 4 µg/mL
- MIC (E. coli D22): 2 to 4 µg/mL
- MIC (K. pneumoniae UMM): 8 to 16 µg/mL
- MIC (E. coli ATCC 25922): 8 to 16 µg/mL
- MIC (A. baumannii ATCC 19606): > 128 µg/mL
- MIC (N. gonorrhoeae FA1090): 0.25 to 0.5 µg/mL (≈ 0.448 to 0.896 µM)

SMILES: NCCN1CCN(C(=O)N[C@@H](C(=O)N[C@H]2Cc3ccc(F)c(C(=O)O)c3OB2O)c2ccc(O)c(O)c2Cl)C(=O)C1=O [Example 227, (R)-3-((R)-2-(4-(2-aminoethyl)-2,3-dioxopiperazine-1-carboxamido)-2-(2-chloro-3,4-dihydroxyphenyl)acetamido)-7-fluoro-2-hydroxy-3,4-dihydro-2H-benzo[e][1,2]oxaborinine-8-carboxylic acid]
- MIC (P. aeruginosa PAO1): < 0.25 µg/mL
- MIC (K. pneumoniae SI-117): 0.5 to 1 µg/mL
- MIC (E. coli 901C): < 0.25 µg/mL
- MIC (P. aeruginosa ATCC 35151): < 0.25 µg/mL
- MIC (E. coli AG100A): < 0.25 µg/mL
- MIC [1]: < 0.25 µg/mL
- MIC (E. coli D22): 0.5 to 1 µg/mL
- MIC (K. pneumoniae UMM): 0.5 to 1 µg/mL
- MIC (E. coli ATCC 25922): 0.5 to 1 µg/mL
- MIC (A. baumannii ATCC 19606): < 0.25 µg/mL
- MIC (N. gonorrhoeae FA1090): 1 to 2 µg/mL (≈ 1.65 to 3.29 µM)

SMILES: CC(=O)NCCN1CCN(C(=O)NC(C(=O)N[C@H]2Cc3cccc(C(=O)O)c3OB2O)c2ccc(O)c(O)c2Cl)C(=O)C1=O (stereo partly drawn) [Example 228, (3R)-3-(2-(4-(2-acetamidoethyl)-2,3-dioxopiperazine-1-carboxamido)-2-(2-chloro-3,4-dihydroxyphenyl)acetamido)-2-hydroxy-3,4-dihydro-2H-benzo[e][1,2]oxaborinine-8-carboxylic acid]
- MIC (P. aeruginosa PAO1): 0.5 to 1 µg/mL
- MIC (K. pneumoniae SI-117): 2 to 4 µg/mL
- MIC (E. coli 901C): 0.5 to 1 µg/mL
- MIC (P. aeruginosa ATCC 35151): < 0.25 µg/mL
- MIC (E. coli AG100A): 0.5 to 1 µg/mL
- MIC [1]: < 0.25 µg/mL
- MIC (E. coli D22): 2 to 4 µg/mL
- MIC (K. pneumoniae UMM): 0.5 to 1 µg/mL
- MIC (E. coli ATCC 25922): 8 to 16 µg/mL
- MIC (A. baumannii ATCC 19606): 0.5 to 1 µg/mL
- MIC (N. gonorrhoeae FA1090): 1 to 2 µg/mL (≈ 1.58 to 3.17 µM)

SMILES: CS(=O)(=O)NCCN1CCN(C(=O)NC(C(=O)N[C@H]2Cc3cccc(C(=O)O)c3OB2O)c2ccc(O)c(O)c2Cl)C(=O)C1=O (stereo partly drawn) [Example 229, (3R)-3-(2-(2-chloro-3,4-dihydroxyphenyl)-2-(4-(2-(methylsulfonamido)ethyl)-2,3-dioxopiperazine-1-carboxamido)acetamido)-2-hydroxy-3,4-dihydro-2H-benzo[e][1,2]oxaborinine-8-carboxylic acid]
- MIC (P. aeruginosa PAO1): 2 to 4 µg/mL
- MIC (K. pneumoniae SI-117): 8 to 16 µg/mL
- MIC (E. coli 901C): 0.5 to 1 µg/mL
- MIC (P. aeruginosa ATCC 35151): < 0.25 µg/mL
- MIC (E. coli AG100A): 0.5 to 1 µg/mL
- MIC [1]: < 0.25 µg/mL
- MIC (E. coli D22): 2 to 4 µg/mL
- MIC (K. pneumoniae UMM): 8 to 16 µg/mL
- MIC (E. coli ATCC 25922): 8 to 16 µg/mL
- MIC (A. baumannii ATCC 19606): < 0.25 µg/mL
- MIC (N. gonorrhoeae FA1090): 4 to 8 µg/mL (≈ 5.99 to 12 µM)

SMILES: NCCN1CCN(C(=O)N[C@@H](C(=O)N[C@H]2Cc3ccc(F)c(C(=O)O)c3OB2O)c2ncc(O)cc2F)C(=O)C1=O [Example 230, (R)-3-((R)-2-(4-(2-aminoethyl)-2,3-dioxopiperazine-1-carboxamido)-2-(3-fluoro-5-hydroxypyridin-2-yl)acetamido)-7-fluoro-2-hydroxy-3,4-dihydro-2H-benzo[e][1,2]oxaborinine-8-carboxylic acid]
- MIC (P. aeruginosa PAO1): 32 to 64 µg/mL
- MIC (K. pneumoniae SI-117): 8 to 16 µg/mL
- MIC (E. coli 901C): 0.5 to 1 µg/mL
- MIC (P. aeruginosa ATCC 35151): < 0.25 µg/mL
- MIC (E. coli AG100A): 2 to 4 µg/mL
- MIC [1]: 2 to 4 µg/mL
- MIC (E. coli D22): 2 to 4 µg/mL
- MIC (K. pneumoniae UMM): 8 to 16 µg/mL
- MIC (E. coli ATCC 25922): 8 to 16 µg/mL
- MIC (A. baumannii ATCC 19606): > 128 µg/mL
- MIC (N. gonorrhoeae FA1090): 1 to 2 µg/mL (≈ 1.74 to 3.47 µM)
